Laboratory results: US7968080B2, “Somatostatin analogs with inhibitory activity to growth hormone release” (The Regents of the University of California, priority 2003, dated 2011)
Like-named read-outs stand apart in the source and are kept apart here.

What was measured:
SST1 = SST1 (Homo sapiens, UniProt P30872); experiment: Binding affinities of SS-14, Sandostatin and RC-121 (Table 1); conditions: read-out: Ki ± SEM, SST1
SST4 = SST4 (Homo sapiens, UniProt P31391); experiment: as above; conditions: read-out: Ki ± SEM, SST4
SST3 = SST3 (Homo sapiens, UniProt P32745); experiment: as above; conditions: read-out: Ki ± SEM, SST3
SST 1-5 = conditions: background statement; cited from earlier work
[1] = system: somatostatin receptors hsst1-5; experiment: Binding potencies and selectivities at somatostatin receptors hsst1-5; parameters: species or system human
hsst2 = hsst2 (Homo sapiens, UniProt P30874); experiment: Binding of beta-MeTrp analogs of L-363,301 to hsst2
Sequence of hsst2 (P30874 whole entry): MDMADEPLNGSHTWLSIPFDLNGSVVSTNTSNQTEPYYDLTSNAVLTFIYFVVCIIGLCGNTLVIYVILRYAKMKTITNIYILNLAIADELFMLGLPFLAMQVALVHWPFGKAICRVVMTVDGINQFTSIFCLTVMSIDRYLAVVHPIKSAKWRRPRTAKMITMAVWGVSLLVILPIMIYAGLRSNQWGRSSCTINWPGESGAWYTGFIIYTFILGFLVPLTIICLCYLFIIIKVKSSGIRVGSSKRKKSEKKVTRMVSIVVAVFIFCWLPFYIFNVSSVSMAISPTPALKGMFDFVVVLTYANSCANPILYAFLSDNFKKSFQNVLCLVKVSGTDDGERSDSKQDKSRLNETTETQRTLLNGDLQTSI

Sequence of SST4 (P31391 whole entry, species assumed): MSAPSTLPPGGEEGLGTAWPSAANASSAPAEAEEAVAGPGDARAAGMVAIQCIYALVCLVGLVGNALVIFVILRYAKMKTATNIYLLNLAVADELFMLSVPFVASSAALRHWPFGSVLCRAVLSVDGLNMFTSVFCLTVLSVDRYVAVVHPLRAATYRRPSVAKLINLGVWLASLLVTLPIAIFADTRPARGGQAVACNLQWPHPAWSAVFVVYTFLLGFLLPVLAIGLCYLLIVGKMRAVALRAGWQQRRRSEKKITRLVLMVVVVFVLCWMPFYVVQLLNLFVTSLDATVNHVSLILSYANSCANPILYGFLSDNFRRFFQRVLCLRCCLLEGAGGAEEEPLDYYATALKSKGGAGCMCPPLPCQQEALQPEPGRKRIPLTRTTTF
Sequence of SST3 (P32745 whole entry, species assumed): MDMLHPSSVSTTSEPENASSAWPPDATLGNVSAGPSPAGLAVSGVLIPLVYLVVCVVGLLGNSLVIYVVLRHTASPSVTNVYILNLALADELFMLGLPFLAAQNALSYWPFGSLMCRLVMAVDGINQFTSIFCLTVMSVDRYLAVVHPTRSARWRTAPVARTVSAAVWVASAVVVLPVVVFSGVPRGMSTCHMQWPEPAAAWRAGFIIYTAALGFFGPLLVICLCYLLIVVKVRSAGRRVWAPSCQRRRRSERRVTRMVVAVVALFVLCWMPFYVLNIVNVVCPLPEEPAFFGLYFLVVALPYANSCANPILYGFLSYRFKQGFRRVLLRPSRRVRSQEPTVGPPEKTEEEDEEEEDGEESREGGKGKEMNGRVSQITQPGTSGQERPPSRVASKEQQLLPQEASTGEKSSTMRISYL
Sequence of SST1 (P30872 whole entry, species assumed): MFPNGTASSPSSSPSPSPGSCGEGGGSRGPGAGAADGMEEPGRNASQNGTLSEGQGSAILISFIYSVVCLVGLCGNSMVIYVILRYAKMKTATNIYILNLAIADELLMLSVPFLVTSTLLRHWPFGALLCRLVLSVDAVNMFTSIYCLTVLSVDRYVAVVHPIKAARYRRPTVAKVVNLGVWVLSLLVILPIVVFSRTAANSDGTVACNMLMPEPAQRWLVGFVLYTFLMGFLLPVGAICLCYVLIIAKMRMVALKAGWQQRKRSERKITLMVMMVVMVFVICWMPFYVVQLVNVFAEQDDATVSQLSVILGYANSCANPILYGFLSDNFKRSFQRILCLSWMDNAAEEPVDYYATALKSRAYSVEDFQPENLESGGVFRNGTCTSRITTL

binding to receptor hsst2 (hsst2) | Compound | interaction with SS receptor subtypes (background) (SST 1-5) | potency relative to parent peptide L-363,301 [1] | selectivity among hsst1-5 [1] | other results
– | CC(C)[C@@H]1NC(=O)[C@H](CCCCN)NC(=O)[C@@H](Cc2c[nH]c3ccccc23)NC(=O)[C@H](Cc2ccc(O)cc2)NC(=O)[C@@H](NC(=O)[C@H](N)Cc2ccccc2)CSSC[C@@H](C(=O)N[C@H](C(N)=O)[C@@H](C)O)NC1=O [RC-121, D-Phe-c[Cys-Tyr-D-Trp-Lys-Val-Cys]-Thr-NH2] | – | – | – | Ki (SST1): > 1000 nM; Ki (SST4): > 1000 nM; Ki (SST3): > 1000 nM
– | C[C@@H](O)[C@@H]1NC(=O)[C@H](CCCCN)NC(=O)[C@@H](Cc2c[nH]c3ccccc23)NC(=O)[C@H](Cc2ccccc2)NC(=O)[C@@H](NC(=O)[C@H](N)Cc2ccccc2)CSSC[C@@H](C(=O)N[C@H](CO)[C@@H](C)O)NC1=O [Sandostatin, D-Phe-c[Cys-Phe-D-Trp-Lys-Thr-Cys]-Thr-ol] | interact significantly with three of the receptor subtypes, i.e. SST2, SST3 and SST5 | – | – | –
– | SS-28: N-terminally extended version of SS-14 that has an additional 14 amino acid residues | high affinity | – | – | –
nanomolar range | c[Pro-Phe-(2R,3R)-β-MeTrp-Lys-Thr-Phe] | – | much less active | highly selective for hsst2 | –
nanomolar range | c[Pro-Phe-(2R,3S)-β-MeTrp-Lys-Thr-Phe] | – | more potent than the parent peptide | highly selective for hsst2 | binding to receptor hsst2 (hsst2; listed as (2R,3S)-β-MeTrp diastereomer): bind very well to hsst2
